From patent US20090325952A1, “PYRAZOLO[3,4-B]PYRIDINE COMPOUNDS, AND THEIR USE AS PDE4 INHIBITORS” (Glaxo Group Limited, priority 2006, published 2009)
Where a name gives a salt, the structure may show the parent alone.

Biological target: PDE4D (human recombinant) (Homo sapiens, UniProt Q08499)
Assay: Inhibition of PDE4D activity (FP assay)
Assay type: biochemical
Details: FP assay or generally similar assay, ±about 0.5 or more; for IC50: read-out: PDE4D pIC50 (converted)
Excerpt: Human recombinant PDE4D (HSPDE4D3A) is disclosed in P. A. Baecker et al., “Isolation of a cDNA encoding a human rolipram-sensitive cyclic AMP phoshodiesterase (PDE IVD)”, Gene, 1994, 138, 253-256.
The ability of compounds to inhibit catalytic activity at PDE4B (human recombinant) or PDE4D (human recombinant) can optionally be determined by IMAP Fluorescence Polarisation (FP) assay (IMAP Explorer kit, available from Molecular Devices Corporation, Sunnydale, Calif., USA; Molecular Devices code: R8062) in 384-well format.
The IMAP FP assay is able to measure PDE activity in an homogenous, non-radioactive assay format. The FP assay uses the ability of immobilised trivalent metal cations, coated onto nanoparticles (tiny beads), to bind the phosphate group of Fl-AMP that is produced on the hydrolysis of fluorescein-labelled (Fl) cyclic adenosine mono-phosphate (Fl-cAMP) to the non-cyclic Fl-AMP form. […] Binding of Fl-AMP product to the beads (coated with the immobilised trivalent cations) slows the rotation of the bound Fl-AMP and leads to an increase in the fluorescence polarisation ratio of parallel to perpendicular light. Inhibition of the PDE reduces/inhibits this signal increase.
Test compounds (small volume, e.g. ca. 0.5 to 1 microlitres (ul), suitably ca. 0.5 ul, of solution in DMSO) are preincubated at ambient temperature (room temperature, e.g. 19-23° C.) in black 384-well microtitre plates (supplier: NUNC, code 262260) with PDE enzyme in 10 mM Tris-HCl buffer pH 7.2, 10 mM MgCl2, 0.1% (w/v) bovine serum albumin, and 0.05% NaN3 for 10-30 minutes. The enzyme level is set by experimentation so that reaction is linear throughout the incubation. Fluorescein adenosine 3′,5′-cyclic phosphate (from Molecular Devices Corporation, Molecular Devices code: R7091) is added to give about 40 nM final concentration (final assay volume usually ca. 20-40 ul, suitably ca. 20 ul). Plates are mixed on an orbital shaker for 10 seconds and incubated at ambient temperature for 40 minutes. IMAP binding reagent (as described above, from Molecular Devices Corporation, Molecular Devices code: R7207) is added (60 ul of a 1 in 400 dilution in binding buffer of the kit stock solution) to terminate the assay. Plates are allowed to stand at ambient temperature for 1 hour. The Fluorescence Polarisation (FP) ratio of parallel to perpendicular light is measured using an Analyst™ plate reader (from Molecular Devices Corporation). For inhibition curves, 10 concentrations (e.g. 1.5 nM-30 uM) of each compound are assayed. Curves are analysed using ActivityBase and XLfit (ID Business Solutions Limited, 2 Ocean Court, Surrey Research Park, Guildford, Surrey GU2 7QB, United Kingdom). Results are expressed as pIC50 values.
The PDE4D pIC50 values of some compounds or salts of the invention are as follows, as measured using an FP assay or a generally similar assay: • the salt of Example 1A1: PDE4D pIC50=about 10.7 (about 0.5 or more) (n=8). • the compound of Example 1B: PDE4D pIC50=about 10.4 (about 0.5 or more) (n=2). • the salt of Example 9: PDE4D pIC50>about 11.0 (± about 0.5 or more) (n=1). • the salt of Example 19: PDE4D pIC50=about 10.7 (±about 0.5 or more) (n=2). • the salt of Example 26: PDE4D pIC50=about 9.4 (±about 0.5 or more) (n=2). • the compound of Example 23A: PDE4D pIC50=about 10.5 (± about 0.5 or more) (n=1). Emesis: Some known PDE4 inhibitors can cause emesis and/or nausea to greater or lesser extents, especially after systemic exposure e.g. after oral administration (e.g. see Z. Huang et al., Current Opinion in Chemical Biology, 2001, 5: 432-438, see especially pages 433-434 and refs cited therein). Therefore, it would be preferable, but not essential, if a PDE4 inhibitory compound or salt of the invention were to cause only limited or manageable emetic side-effects, e.g. after inhaled or parenteral or external-topical administration. […]

PDE4D (human recombinant), sequence (Q08499 1-673 isoform Q08499-2): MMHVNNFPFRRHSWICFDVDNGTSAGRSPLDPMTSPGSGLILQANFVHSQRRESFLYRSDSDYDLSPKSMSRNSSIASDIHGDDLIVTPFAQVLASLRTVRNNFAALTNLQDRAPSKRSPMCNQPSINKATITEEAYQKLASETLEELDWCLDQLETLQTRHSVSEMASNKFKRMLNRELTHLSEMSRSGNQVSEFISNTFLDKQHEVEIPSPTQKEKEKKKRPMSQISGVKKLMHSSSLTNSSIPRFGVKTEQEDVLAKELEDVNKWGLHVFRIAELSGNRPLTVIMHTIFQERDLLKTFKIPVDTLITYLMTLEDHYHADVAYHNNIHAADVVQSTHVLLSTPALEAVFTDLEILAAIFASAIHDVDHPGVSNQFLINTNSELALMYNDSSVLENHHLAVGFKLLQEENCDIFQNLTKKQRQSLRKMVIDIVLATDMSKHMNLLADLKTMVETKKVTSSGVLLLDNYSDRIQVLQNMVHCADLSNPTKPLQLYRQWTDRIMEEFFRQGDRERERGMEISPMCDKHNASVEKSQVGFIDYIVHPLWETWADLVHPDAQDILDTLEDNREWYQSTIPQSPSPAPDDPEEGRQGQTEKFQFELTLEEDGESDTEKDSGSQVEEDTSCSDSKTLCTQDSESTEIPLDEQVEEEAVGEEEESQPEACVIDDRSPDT

SMILES | IC50 [nM] | PDE4D pIC50
CCc1nc2c(cnn2CC)c(NC2CCOCC2)c1CNC(=O)c1ccc(NC(=O)CCCCCCCN(C)CCO)cc1 [Example 1A1, N-{[1,6-Diethyl-4-(tetrahydro-2H-pyran-4-ylamino)-1H-pyrazolo[3,4-b]pyridin-5-yl]methyl}-4-({8-[(2-hydroxyethyl)(methyl)amino]octanoyl}amino)benzamide dihydrochloride] | ~0.02 | 
CCc1nc2c(cnn2CC)c(NC2CCN(C(N)=O)CC2)c1CNC(=O)c1ccc(NC(=O)CCCCCCCN(C)CCO)cc1.O=C(O)C(F)(F)F [Example 9, 4-({1,6-diethyl-5-[({[4-({8-[(2-hydroxyethyl)(methyl)amino]octanoyl}amino)phenyl]carbonyl}amino)methyl]-1H-pyrazolo[3,4-b]pyridin-4-yl}amino)-1-piperidinecarboxamide trifluoroacetate (salt)] |  | > 11.0
CCc1nc2c(cnn2CC)c(NC2CCOCC2)c1CNC(=O)c1ccc(CCCCOCCCCN(C)CCO)cc1 [Example 19, formate salt of N-{[1,6-diethyl-4-(tetrahydro-2H-pyran-4-ylamino)-1H-pyrazolo[3,4-b]pyridin-5-yl]methyl}-4-[4-({4-[(2-hydroxyethyl)(methyl)amino]butyl}oxy)butyl]benzamide] | ~0.02 | 
CCn1ncc2c(NC3CCOCC3)c(CNC(=O)c3ccc(NC(=O)CCCCCCCN(C)CCO)cc3)cnc21 [Example 26, Formate salt of N-{[1-ethyl-4-(tetrahydro-2H-pyran-4-ylamino)-1H-pyrazolo[3,4-b]pyridin-5-yl]methyl}-4-({8-[(2-hydroxyethyl)(methyl)amino]octanoyl}amino)benzamide] | ~0.398 | 

Continued, in another order:

IC50 [nM] | SMILES | PDE4D pIC50
~0.0398 | CCc1nc2c(cnn2CC)c(NC2CCOCC2)c1CNC(=O)c1ccc(NC(=O)CCCCCCCN(C)CCO)cc1 [Example 1B, N-{[1,6-diethyl-4-(tetrahydro-2H-pyran-4-ylamino)-1H-pyrazolo[3,4-b]pyridin-5-yl]methyl}-4-({8-[(2-hydroxyethyl)(methyl)amino]octanoyl}amino)benzamide] | 
~0.0316 | CCc1nc2c(cnn2CC)c(NC2CCN(C(N)=O)CC2)c1CNC(=O)c1ccc(CCCCOCCCCN2CCOCC2)cc1 [Example 23A, 4-({1,6-diethyl-5-[({[4-(4-{[4-(4-morpholinyl)butyl]oxy}butyl)phenyl]carbonyl}amino)methyl]-1H-pyrazolo[3,4-b]pyridin-4-yl}amino)-1-piperidinecarboxamide] | 
